We go through 3 compounds from US7420068B2, “Crystalline composition containing escitalopram” (H. Lundbeck A/S, priority 2004, dated 2008).

What all share (format): physicochemical
The nature of data set [1]: Flow properties of prior-art crystalline products (background statement). The settings on record: product of the known preparation process.
Data set [2] can be described thus: Particle size of prior-art crystalline products (background statement). The following applies: product of the known preparation process.
Data set [3] can be described thus: Particle size distribution by laser diffraction (Sympatec Helos, 1 bar dispersive pressure). An excerpt: As used herein, “particle size distribution” means the cumulative volume size distribution of equivalent spherical diameters as determined by laser diffraction at 1 bar dispersive pressure in a Sympatec Helos equipment. “Median particle size” “MPS” and X50 refer, correspondingly, each to the median or 50% quantile of said particle size distribution. “X10” and “X95” refer, correspondingly, to the 10% respectively the 95% quantile. “X10/X50” and “X50/X95” refer to the ratio between X10 and X50 respectively X50 and X95.

Molecules are shown by their SMILES. Counter-ions that a name gives are not always drawn.

Consider `CN(C)CCC[C@@]1(c2ccc(F)cc2)OCc2cc(C#N)ccc21.O=C(O)C(=O)O` [escitalopram oxalate, (S)-1-[3-(dimethylamino)propyl]-1-(4-fluorophenyl)-1,3-dihydro-5-isobenzofurancarbonitrile oxalate], for which the flow properties entry in data set [1] was “similarly poor”. Also, the particle size in data set [2] is listed as 2-20 μm.
Take `CN(C)CCC[C@@]1(c2ccc(F)cc2)OCc2cc(C#N)ccc21` [Example 1, escitalopram oxalate]: in data set [3] (S-diol batches, production scale recrystallisation from ethanol), the X50 (median particle size) worked out at 171 µm. For the same compound, in data set [3] (S-diol batches, ratio of 10% quantile to median), the X10/X50 was found to be 0.13. Moreover, the X50/X95 in data set [3] (S-diol batches, ratio of median to 95% quantile) is on record as 0.44. Further, the “Particle size at quantile 10%” value in data set [3] (Sympatec Helos, quantile 10%) came to 13 μm. Also, the “Particle size at quantile 50%” value in data set [3] (Sympatec Helos, quantile 50%) is 163 μm. For the same compound, the “Particle size at quantile 90%” value in data set [3] (Sympatec Helos, quantile 90%) is 455 μm.
Consider `CN(C)CCCC1(c2ccc(F)cc2)OCc2cc(C#N)ccc21` (stereo not shown) [citalopram hydrobromide], for which the flow properties entry in data set [1] was “very poor”. Further, the particle size in data set [2] is reported as 2-20 μm.
